Laboratory results published in patent publication US20230263817A1, “HIGH DOSE NICOTINAMIDE ADENINE DINUCLEOTIDE (NAD) PRECURSOR REGIMENS FOR REDUCTION OF INFLAMMATION IN HUMAN PATIENTS WITH PREEXISTING INFLAMMATION” (University of Washington, priority 2021, published 2023).

How the values were obtained:
[1] = Whole blood NAD+ in Stage D HF patients on oral NR for 5-9 days; assay type: in vivo, human; details: oral NR up to 1000 mg twice a day, post vs pre
Experimental: For experiments associated with the oral NR administration (FIGS. 12C-12F), 5 hospitalized Stage D HF patients undergoing advanced heart failure therapy evaluations were put on escalating doses of NR (250 mg twice a day for Day 1, 500 mg twice a day for Day 2, and 1000 mg twice a day from Day 3 on) for 5-9 days. Fasting blood samples were obtained for PBMC isolation at baseline and post-NR administration. Subject 5 was withdrawn due to a change in clinical course deemed to be independent from NR administration.
Whole bloodNAD^+ assays. These were performed as previously described (Airhart S E, et al., PLoS One. 2017, 12(12):e0186459). Briefly, 50 μL of thawed blood samples were added to tubes containing 1 μg BMP as the internal standard and immediately followed by 300 μL of 4% trichloroacetic acid to precipitate proteins. Calibration standards were similarly prepared except that the matrix was 30 mg/mL BSA spiked with NAD^+ and NMN that had been dissolved in methanol. After protein precipitation and high-speed centrifugation, the supernatants were loaded onto Costar Spin-X 0.22 μm spin filters and subject to high speed centrifugation again. The eluates were injected onto an Agilent 1100 series high performance liquid chromatograph coupled to an Agilent G1956B single-quadrupole mass spectrometer. The mass spectrometer was operated in electrospray ionization mode with positive polarity.

[2] = system: healthy PBMCs; experiment: Seahorse Mito Stress Test (OCR) of healthy PBMCs after 4-hour in vitro treatment; assay type: cell-based, human
Experimental: PBMC and Monocyte isolation. 30-60 ml of fasting blood was collected into EDTA-containing Vacutainers (BD Mfr #364606). Blood then was diluted (1:1) with RPMI medium (Corning; Cat #17-105-CV) and applied to Histopaque gradient medium (Sigma-Aldrich; Cat #10771) using SepMate-50 (STEMCELL Technologies), and centrifuged at 1200 g for 10 minutes. Top layer contained the enriched peripheral blood mononuclear cells (PBMCs) which were collected and followed by centrifugation at 300 g for 10 minutes. The pellet was resuspended with ACK lysis buffer (Gibco; Cat. A1049201) and incubated at room temperature for 5 minutes to remove residual red blood cells. Next, the enriched PBMCs were washed twice with RPMI medium. All PBMC samples were subjected to the baseline Seahorse Mito Stress Test. When available, the remaining cells were used for cytokine mRNA quantitative PCR and in vitro assays. For monocyte isolation, a magnetic bead-based negative-selection monocyte isolation kit (Miltenyi Biotec, 130-096-537) was used per the manufacturer's instructions. Briefly, antibody-conjugated magnetic bead solution was added to isolated PBMCs resuspended in RPMI containing 0.5% BSA and incubated for 20 minutes at 4° C., followed by magnetic column binding and elution. The procedure was repeated once to improve the purity of monocytes. The monocytes were washed once with RPMI prior to subsequent experiments.
Seahorse Mito Stress Test. Oxygen consumption rate (OCR) of freshly isolated PBMCs was assessed using a Seahorse XFe24 analyzer (Agilent Technologies). Briefly, purified PBMCs were resuspended in Seahorse base medium (Agilent Technologies, supplemented with 1 mM pyruvate, 2 mM glutamine, and 10 mM glucose, pH 7.4), and added 10^6 cells/well at equal volume of 500 μL in a Seahorse 24-well plate. The cells were maintained in a non-CO2 incubator and allowed to settle for 30 minutes at 37° C. Next, the plate was centrifuged at 40 g for 10 minutes at room temperature without application of the brake to help cells attach to the bottom of the plate. Drugs used in the assay: 5 μM oligomycin A (Sigma-Aldrich; Cat. 75351), 3 μM Trifluoromethoxy carbonylcyanide phenylhydrazone (FCCP) (Sigma-Aldrich; Cat. C2920), 1 μM Rotenone (Sigma-Aldrich; Cat. […]), 1 μM Antimycin A (Sigma-Aldrich; Cat. […]), 0.5 mM TMPD (Sigma-Aldrich; Cat. T7394) and 10 mM Ascorbate (Sigma-Aldrich; Cat. 95209).
(§1) PBMC and Monocyte Culture. Freshly isolated PBMCs or Monocytes from healthy or HF subjects were resuspended with RPMI medium plus 10% heat inactivated FBS. PBMCs (10^6 cells/well) were seeded in Seahorse 24-well plates and incubated at 37° C. in CO2 incubator with various proinflammatory triggers (Vehicle, MitoDAMP, LPS) and compounds (NR, MCC 950, MitoTempo, or LMT-28). After 4 hours incubation, the plate was centrifuged at 40 g for 10 minutes at room temperature without application of the brake to help cells attach to the bottom of the plate. The cells were washed twice and then brought up to 500 μL using Seahorse base medium (Agilent Technologies, supplemented with 1 mM pyruvate, 2 mM glutamine, and 10 mM glucose, pH 7.4).

[3] = system: NLRP3 and pro-inflammatory cytokine (IL1β, IL6, IL18, TNFα) mRNA in healthy PBMCs; experiment: RT-qPCR of NLRP3 and pro-inflammatory cytokine mRNA in healthy PBMCs treated in vitro; assay type: cell-based, human
Experimental: as §1
IL6 ELISA. Isolated PBMCs (4×10^6 cells per sample) from healthy or HF participants were resuspended in RPMI medium containing 10% heat-inactivated FBS and treated with various proinflammatory triggers (Vehicle, MitoDAMP, LPS) and compounds (NR, MCC 950, MitoTempo, or LMT-28) to final PBMC concentrations of 10×10^6 cells per mL. See below for detailed descriptions of the reagents. The samples were incubated in Eppendorf tubes at 37° C. in a 5% CO2 incubator with caps open for times designated in the brief description of drawings. The cultured PBMC samples were centrifuged at 8,000 RPM at room temperature. The supernatant was used for ELISA per the manufacture protocol using R&D Systems human IL6 kit (Cat #DY206-05). The cell pellets were stored in −80° C.
RNA Isolation and Quantitative PCR analysis. Total RNA was isolated from frozen PBMC pellets using Trizol (Invitrogen) per the manufacturer's instructions, and cDNA was synthesized using iScript™ Reverse Transcription Supermix (Bio-rad) per the manufacturer's instructions. Real-time PCR was performed in the Corbett rotor gene 6000 real-time PCR machine using iQ™ SYBR® Green Supermix (Bio-rad) and expression levels of the indicated genes were calculated using the ΔΔCt method.

[4] = healthy PBMC, 4-hour 1 mM NR vs vehicle, absence of MitoDAMP

NC(=O)c1ccc[n+]([C@@H]2O[C@H](CO)[C@@H](O)[C@H]2O)c1 [NR, nicotinamide riboside]
whole blood NAD+ levels [1]: increases
basal OCR [2, 4]: increased
maximal OCR [2, 4]: increased
MitoDAMP-induced decline of maximal OCR ([2]; healthy PBMC, 4-hour MitoDAMP with 1 mM NR): partially prevented
maximal OCR ([2]; healthy PBMCs, 4-hour 10 ng/mL LPS with 1 mM NR): enhancing
proinflammatory cytokine gene expressions ([3]; 4-hour 10 ng/mL LPS with 1 mM NR relative to LPS alone): reducing
proinflammatory cytokine gene expressions ([3]; 4-hour MitoDAMP with 1 mM NR relative to MitoDAMP only): reduction
